For assay [1], the system named is KRAS G12D mutant human pancreatic cancer cell HPAC. Nature of the assay: 3D cell proliferation inhibition assay, HPAC. The class given is cell-based. Conditions: 168 h, 7 days, CTG. An excerpt:
(§1) The inhibitory effects of the compounds on 3D cell proliferation were investigated on KRAS G12D mutant human lung cancer cell A427, KRAS G12D mutant human gastric cancer cell AGS, KRAS G12D mutant human metastatic pancreatic cancer cell AsPc-1, KRAS G12D mutant human pancreatic cancer cell Panc 04.03, KRAS G12D mutant human pancreatic cancer cell HPAC, KRAS G12V mutant human lung squamous cell carcinoma cell SW900, and KRAS WT human gastric cancer cell MKN1. The specific procedures were as follows:
(§2) 10 μL of each compound solution diluted in a gradient was added to corresponding wells of a 96-well low-adsorption microplate (PerkinElmer), so that the final concentrations of the test compounds in the reaction system were in a range of 10000-0.026 nM. The final concentration of DMSO was 0.2%. Then 90 µL of cells were correspondingly seeded into each well to achieve a cell density of 5×10^2 cells/well (the cell density of SW900 was 5×10^1 cells/well, and the cell density of MKN1 was 1×10^3 cells/well). In addition to test wells for the test compounds, both a DMSO control well and a medium control well were set, with the DMSO control well containing DMSO and cells and the medium well containing only a medium. After the sample loading, the 96-well low-adsorption microplate was incubated in an incubator at 37° C. with 5% carbon dioxide for 7 days. After 7 days, the microplate was taken out, and 100 μL of CTG reagent (Promega) was added to each well. The plate was incubated at room temperature for 60 min and read on a microplate reader EnVision by the chemiluminescence program. The inhibition rates of the compounds at each concentration were calculated using the formula for the percentage inhibition of cell proliferation: inhibition rate %=(mean value of DMSO control group−single concentration reading value of compound)/(mean value of DMSO control group−mean value of medium control group)×100. Then non-linear curve fittings for logarithmic concentration-inhibition rate were performed by GraphPad Prism 8, and the IC50 values of the compounds were obtained (Table 5).

The test system of assay [2] is KRAS G12D mutant human gastric cancer cell AGS. Nature of the assay: 3D cell proliferation inhibition assay, AGS. The class given is cell-based. Conditions: 168 h, 7 days, CTG, numeric values. In short, it runs like this:
(§3)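 3D growth, low-adsorption plate; 5×10^2 cells/well; cpd 10000–0.026 nM final, 0.2% DMSO; 7 d, 37 °C/5% CO2. CTG luminescence, 60 min RT. % inhibition vs DMSO (cells) and medium blanks; IC50 by nonlinear fit.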

The target of assay [3] is T1, KRAS-G12D (Homo sapiens, UniProt P01116, G12D).
T1 construct: endogenous in cells; host or cells: A-427 (ATCC), AGS, AsPc-1, Panc 04.03
T1 sequence (P01116 1-188 isoform P01116-2 G12D): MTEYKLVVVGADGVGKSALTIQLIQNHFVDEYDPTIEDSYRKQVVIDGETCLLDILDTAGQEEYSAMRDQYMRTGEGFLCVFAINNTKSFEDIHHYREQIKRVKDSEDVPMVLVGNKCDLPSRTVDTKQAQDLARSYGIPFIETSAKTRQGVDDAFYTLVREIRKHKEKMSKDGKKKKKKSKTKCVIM
Nature of the assay: KRAS-G12D degradation assay (Western Blot), AsPc-1 cells. The settings on record: for DC50: 24 h; for Dmax: ASPC1, 24 h. It counts as cell-based. The gist of the method: (§4)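 Western blotting of lysates (5 μg protein) quantified KRAS against a β-actin reference after 24 h exposure to compound at final 0.03–3000 nM in 0.25% DMSO. Cells were A-427, AGS, AsPc-1 or Panc 04.03, all KRAS G12D, at 5×10^5/well. Degradation versus control yielded DC50 and Dmax.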
Background: A western blot detects proteins with antibodies after separation by electrophoresis.

The subject of assay [4] is KRAS G12D mutant human pancreatic cancer cell Panc 04.03. Nature of the assay: 3D cell proliferation inhibition assay, Panc 04.03. Conditions: 168 h, Panc 04.03, 7 days, CTG, numeric values. It counts as cell-based.
Excerpt: as §1, §2

Assay [5] relates to KRAS G12D mutant human metastatic pancreatic cancer cell AsPc-1. The experiment in a line: 3D cell proliferation inhibition assay, AsPc-1. Conditions: ASPC1, 168 h, AsPc-1, 7 days, CTG, numeric values. It counts as cell-based.
Excerpt: as §1, §2

For assay [6], the target named is T2, Human KRAS G12D 6His-tagged (Homo sapiens, UniProt P01116, G12D).
T2 construct: purchased PerkinElmer
T2 sequence (P01116 1-188 isoform P01116-2 G12D): as above
The experiment in a line: KRAS-G12D/GTP binding assay (HTRF). Conditions: numeric values. The gist of the method:
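Compounds at 0.02-5000 nM final (0.5% DMSO) were tested for blocking GTP Red tracer binding to His-tagged KRAS G12D, detected by Eu-cryptate anti-His antibody after 1 h, 25° C. Inhibition taken from 665/620 nm ratio relative to control, then fitted to give IC50.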

Assay [7] concerns KRAS G12D mutant human lung cancer cell A427. The experiment in a line: 3D cell proliferation inhibition assay, A427. The class given is cell-based. Conditions: A-427, 168 h, A427, 7 days, CTG, numeric values. In short, it runs like this:
as §3

For assay [8], the target named is T1, KRAS-G12D. Nature of the assay: KRAS-G12D degradation assay (Western Blot), A-427 cells. It counts as cell-based. Conditions: A427 cells, 24 h, numeric values. The gist of the method:
as §4

Consider 8 compounds from patent US20260166159A1, “KRAS G12D DEGRADATION AGENT, AND PREPARATION METHOD AND USE THEREFOR” (LEADINGTAC PHARMACEUTICAL (SHAOXING) CO., LTD., priority 2022, published 2026).

On to `C#Cc1c(F)ccc2cc(O)cc(-c3ncc4c(N5CC6CCC(C5)N6)nc(OC[C@H](C)CN5CCN(CC6CCC7(CC6)CCN(C(=O)c6ccc(Cl)c(N8CCC(=O)NC8=O)c6)CC7)CC5)nc4c3F)c12` [Example 102, 1-(5-(9-((4-((R)-3-((4-(3,8-diazabicyclo[3.2.1]octan-3-yl)-7-(8-ethynyl-7-fluoro-3-hydroxynaphthalen-1-yl)-8-fluoropyrido[4,3-d]pyrimidin-2-yl)oxy)-2-methylpropyl)piperazin-1-yl)methyl)-3-azaspiro[5.5]undecane-3-carbonyl)-2-chlorophenyl)dihydropyrimidine-2,4(1H,3H)-dione], for which the half-inhibitory concentration (IC50) in assay [1] came out at 13.5 nM; in assay [2] it was 6.56 nM; in assay [4] it was 15.2 nM; in assay [5], 3.69 nM. This compound came in with a DC50 at KRAS-G12D [3] of 8.93 nM. The Dmax on KRAS-G12D [3] amounted to 100%.
Regarding `C#Cc1c(F)ccc2cc(O)cc(-c3ncc4c(N5CC6CCC(C5)N6)nc(OCC5(CN6CCN(CC7CCC8(CCN(C(=O)c9ccc(C)c(N%10CCC(=O)NC%10=O)c9)CC8)CO7)CC6)CC5)nc4c3F)c12` (stereo not drawn) [Example 106, 1-(5-(3-((4-((1-(((4-(3,8-diazabicyclo[3.2.1]octan-3-yl)-7-(8-ethynyl-7-fluoro-3-hydroxynaphthalen-1-yl)-8-fluoropyrido[4,3-d]pyrimidin-2-yl)oxy)methyl)cyclopropyl)methyl)piperazin-1-yl)methyl)-2-oxa-9-azaspiro[5.5]undecane-9-carbonyl)-2-methylphenyl)dihydropyrimidine-2,4(1H,3H)-dione], the half-maximal inhibitory concentration (IC50) in assay [1] is 152 nM; in assay [2] it was 13.4 nM; in assay [4] it was 63.5 nM; in assay [5], 30.8 nM. Besides, at KRAS-G12D [3], the DC50 amounted to 10.5 nM. The compound also yielded a Dmax on KRAS-G12D [3] of 99.5%.
`C#Cc1c(F)ccc2cc(O)cc(-c3ncc4c(N5CC6CCC(C5)N6)nc(OC[C@H](C)CN5CCN(CC6CCC7(CC6)CCN(C(=O)c6ccc(CC)c(N8CCC(=O)NC8=O)c6)CC7)CC5)nc4c3F)c12` [Example 110, 1-(5-(9-((4-((R)-3-((4-(3,8-diazabicyclo[3.2.1]octan-3-yl)-7-(8-ethynyl-7-fluoro-3-hydroxynaphthalen-1-yl)-8-fluoropyrido[4,3-d]pyrimidin-2-yl)oxy)-2-methylpropyl)piperazin-1-yl)methyl)-3-azaspiro[5.5]undecane-3-carbonyl)-2-ethylphenyl)dihydropyrimidine-2,4(1H,3H)-dione]: the 50% inhibitory concentration (IC50) worked out at 18.6 nM in assay [1], 5.69 nM in assay [2], 12.5 nM in assay [4] and 4.47 nM in assay [5]. This compound also showed a DC50 at KRAS-G12D [3] of 2.56 nM. Moreover, the Dmax at KRAS-G12D [3] came to 99.2%.
As for `C#Cc1c(F)ccc2cc(O)cc(-c3ncc4c(N5CC6CCC(C5)N6)nc(OC[C@H](C)CN5CCN(CC6CCC7(CC6)CCN(C(=O)c6cc(N8CCC(=O)NC8=O)c(C)cc6F)CC7)CC5)nc4c3F)c12` [Example 173, 1-(5-(9-((4-((R)-3-((4-(3,8-diazabicyclo[3.2.1]octan-3-yl)-7-(8-ethynyl-7-fluoro-3-hydroxynaphthalen-1-yl)-8-fluoropyrido[4,3-d]pyrimidin-2-yl)oxy)-2-methylpropyl)piperazin-1-yl)methyl)-3-azaspiro[5.5]undecane-3-carbonyl)-4-fluoro-2-methylphenyl)dihydropyrimidine-2,4(1H,3H)-dione], the IC50 in assay [1] worked out at 3.8 nM; in assay [2], 4.22 nM; in assay [4], 5.88 nM; in assay [5] it was 1.51 nM. This compound also registered a DC50 on KRAS-G12D [3] of 2.42 nM. Moreover, the maximal degradation (Dmax) at KRAS-G12D [3] amounted to 99%.
For the compound `C#Cc1c(F)ccc2cc(O)cc(-c3ccc4c(N5CC6CCC(C5)N6)nc(OCC(C)CN5CCN(CC6CCC7(CC6)CCN(C(=O)c6ccc(C)c(N8CCC(=O)NC8=O)c6)CC7)CC5)nc4c3F)c12` (stereo not drawn) [Example 174, 1-(5-(9-((4-(3-((4-(3,8-diazabicyclo[3.2.1]octan-3-yl)-7-(8-ethynyl-7-fluoro-3-hydroxynaphthalen-1-yl)-8-fluoroquinazolin-2-yl)oxy)-2-methylpropyl)piperazin-1-yl)methyl)-3-azaspiro[5.5]undecane-3-carbonyl)-2-methylphenyl)dihydropyrimidine-2,4(1H,3H)-dione], the half-maximal inhibitory concentration (IC50) in assay [1] came to 1.78 nM; in assay [6] it was 5.19 nM; in assay [2], 19.4 nM; in assay [7] it was 64.2 nM; in assay [4] it was 31.3 nM; in assay [5] it was 62.5 nM. Half-maximal degradation on KRAS-G12D [3] (DC50) was put at 13.6 nM. The compound further gave a Dmax at KRAS-G12D [3] of 100%.
Turning to `C#Cc1c(F)ccc2cc(O)cc(-c3ncc4c(N5CC6CCC(C5)N6)nc(OCC5(CN6CCN(CC7CCC8(CC7)CCN(C(=O)c7ccc(CC)c(N9CCC(=O)NC9=O)c7)CC8)CC6)CC5)nc4c3F)c12` [Example 243, 1-(5-(9-((4-((1-(((4-(3,8-diazabicyclo[3.2.1]octan-3-yl)-7-(8-ethynyl-7-fluoro-3-hydroxynaphthalen-1-yl)-8-fluoropyrido[4,3-d]pyrimidin-2-yl)oxy)methyl)cyclopropyl)methyl)piperazin-1-yl)methyl)-3-azaspiro[5.5]undecane-3-carbonyl)-2-ethylphenyl)dihydropyrimidine-2,4(1H,3H)-dione], half-maximal degradation on KRAS-G12D [8] (DC50) was put at 1.66 nM. Besides, the Dmax on KRAS-G12D [8] (A-427) was 92.9%. Further, the IC50 in assay [1] came out at 0.61 nM; in assay [2] it was 2.16 nM; in assay [7], 121 nM; in assay [4] it was 21.7 nM; in assay [5], 2.34 nM.
On to `C#Cc1c(F)ccc2cc(O)cc(-c3ncc4c(N5CC6CCC(C5)N6)nc(OC[C@@H](CN5CCN(CC6CCC7(CC6)CCN(C(=O)c6ccc(OC)c(N8CCC(=O)NC8=O)c6)CC7)CC5)C(C)C)nc4c3F)c12` [Example 252, 1-(5-(9-((4-((R)-2-(((4-(3,8-diazabicyclo[3.2.1]octan-3-yl)-7-(8-ethynyl-7-fluoro-3-hydroxynaphthalen-1-yl)-8-fluoropyrido[4,3-d]pyrimidin-2-yl)oxy)methyl)-3-methylbutyl)piperazin-1-yl)methyl)-3-azaspiro[5.5]undecane-3-carbonyl)-2-methoxyphenyl)dihydropyrimidine-2,4(1H,3H)-dione], for which the IC50 in assay [1] came to 18.9 nM; in assay [2], 31.7 nM; in assay [4], 51 nM; in assay [5], 21 nM. This compound registered a DC50 at KRAS-G12D [3] of 42.3 nM. Moreover, on KRAS-G12D [3], the maximal degradation (Dmax) was determined as 100%.
On to `[2H]C([2H])([2H])Oc1ccc(C(=O)N2CCC3(CCC(CN4CCN(C[C@@H](C)COc5nc(N6CC7CCC(C6)N7)c6cnc(-c7cc(O)cc8ccc(F)c(C#C)c78)c(F)c6n5)CC4)CC3)CC2)cc1N1CCC(=O)NC1=O` [Example 253, 1-(5-(9-((4-((R)-3-((4-(3,8-diazabicyclo[3.2.1]octan-3-yl)-7-(8-ethynyl-7-fluoro-3-hydroxynaphthalen-1-yl)-8-fluoropyrido[4,3-d]pyrimidin-2-yl)oxy)-2-methylpropyl)piperazin-1-yl)methyl)-3-azaspiro[5.5]undecane-3-carbonyl)-2-(methoxy-d3)phenyl)dihydropyrimidine-2,4(1H,3H)-dione], for which the IC50 in assay [1] turned out to be 10.6 nM; in assay [2] it was 3.92 nM; in assay [4] it was 18.8 nM; in assay [5] it was 1.59 nM. On KRAS-G12D [3], it took 1.39 nM to reach half-maximal degradation (DC50). This compound also came in with a Dmax on KRAS-G12D [3] of 100%.

What is called IC50 is the concentration at which inhibition is half-maximal. A higher IC50 goes with weaker potency in that assay. As usually defined, the DC50 is the concentration giving 50% degradation. A higher DC50 goes with a less potent degrader. Usually Dmax stands for the largest share of the target that was removed. Higher therefore signals a fuller loss of target.
